From PubChem BioAssay (NCI)
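A five-concentration, 48-hour dose response in 96-well plates underlies each endpoint, interpolated linearly between surrounding concentrations. Here, GI50 denotes the concentration required for 50% inhibition of growth. TGI: concentration producing complete growth inhibition.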

Experiments:
Test in all cases: NCI anticancer screen, dose series, 48 h
COLO 205 colon = system: COLO 205 colon
NCI-H226 lung = system: NCI-H226 lung
NCI/ADR-RES ovarian = system: NCI/ADR-RES ovarian
UO-31 renal = system: UO-31 renal
LOX IMVI melanoma = system: LOX IMVI melanoma
HOP-92 NSCLC = system: HOP-92 NSCLC
A498 renal = system: A498 renal
OVCAR-4 ovarian = system: OVCAR-4 ovarian
PC-3 prostate = system: PC-3 prostate
HCC-2998 colon = system: HCC-2998 colon
SF-295 CNS = system: SF-295 CNS
SF-539 CNS = system: SF-539 CNS
HT29 colon = system: HT29 colon
MALME-3M melanoma = system: MALME-3M melanoma
SNB-19 CNS = system: SNB-19 CNS
NCI-H23 lung = system: NCI-H23 lung
MDA-MB-435 = system: MDA-MB-435
SW-620 colon = system: SW-620 colon
RPMI-8226 leukemia = system: RPMI-8226 leukemia
HOP-62 NSCLC = system: HOP-62 NSCLC
K-562 leukemia = system: K-562 leukemia
SF-268 CNS = system: SF-268 CNS
RXF 393 renal = system: RXF 393 renal
UACC-257 melanoma = system: UACC-257 melanoma
CAKI-1 renal = system: CAKI-1 renal
OVCAR-8 ovarian = system: OVCAR-8 ovarian
M14 melanoma = system: M14 melanoma
MOLT-4 leukemia = system: MOLT-4 leukemia
786-0 renal = system: 786-0 renal
ACHN renal = system: ACHN renal
OVCAR-5 ovarian = system: OVCAR-5 ovarian
TK-10 renal = system: TK-10 renal
BT-549 breast = system: BT-549 breast
KM12 colon = system: KM12 colon
EKVX NSCLC = system: EKVX NSCLC
NCI-H460 lung = system: NCI-H460 lung
U251 CNS = system: U251 CNS
SK-MEL-28 melanoma = system: SK-MEL-28 melanoma
SK-OV-3 ovarian = system: SK-OV-3 ovarian
UACC-62 melanoma = system: UACC-62 melanoma
SK-MEL-5 melanoma = system: SK-MEL-5 melanoma
HS 578T breast = system: HS 578T breast
MDA-MB-231 breast = system: MDA-MB-231 breast
DU-145 prostate = system: DU-145 prostate
SNB-75 CNS = system: SNB-75 CNS
A549 NSCLC = system: A549 NSCLC
HL-60(TB) leukemia = system: HL-60(TB) leukemia
MCF7 breast = system: MCF7 breast
HCT-15 colon = system: HCT-15 colon
SN12C renal = system: SN12C renal
SR leukemia = system: SR leukemia
HCT-116 colon = system: HCT-116 colon
OVCAR-3 ovarian = system: OVCAR-3 ovarian
NCI-H522 lung = system: NCI-H522 lung

**Q.** What does the source list for `CC1COCC(C)N1C1=C(Cl)C(=O)c2ccccc2C1=O` (stereo not drawn)?
**A.** GI50 (COLO 205 colon): 13.3 µM; TGI (COLO 205 colon): 27 µM; GI50 (NCI-H226 lung): 15.1 µM; TGI (NCI-H226 lung): 31.2 µM; GI50 (NCI/ADR-RES ovarian): 3.36 µM; TGI (NCI/ADR-RES ovarian): 14.1 µM; GI50 (UO-31 renal): 1390 nM; TGI (UO-31 renal): 2730 nM; GI50 (LOX IMVI melanoma): 1410 nM; TGI (LOX IMVI melanoma): 2770 nM; GI50 (HOP-92 NSCLC): 554 nM; TGI (HOP-92 NSCLC): 2060 nM; GI50 (A498 renal): 14.4 µM; TGI (A498 renal): 27.6 µM; GI50 (OVCAR-4 ovarian): 1610 nM; TGI (OVCAR-4 ovarian): 3.03 µM; GI50 (PC-3 prostate): 3.92 µM; TGI (PC-3 prostate): 17.8 µM; GI50 (HCC-2998 colon): 17.2 µM; TGI (HCC-2998 colon): 31.1 µM; GI50 (SF-295 CNS): 2940 nM; TGI (SF-295 CNS): 17.7 µM; GI50 (SF-539 CNS): 14.3 µM; TGI (SF-539 CNS): 28.1 µM; GI50 (HT29 colon): 17.5 µM; TGI (HT29 colon): 45.6 µM; GI50 (MALME-3M melanoma): 1500 nM; TGI (MALME-3M melanoma): 2970 nM; GI50 (SNB-19 CNS): 14.9 µM; TGI (SNB-19 CNS): 28.1 µM; GI50 (NCI-H23 lung): 11.2 µM; TGI (NCI-H23 lung): 24.7 µM; GI50 (MDA-MB-435): 1350 nM; TGI (MDA-MB-435): 2730 nM; GI50 (SW-620 colon): 1740 nM; TGI (SW-620 colon): 3.24 µM; GI50 (RPMI-8226 leukemia): 2040 nM; TGI (RPMI-8226 leukemia): 5.68 µM; GI50 (HOP-62 NSCLC): 14 µM; TGI (HOP-62 NSCLC): 27.4 µM; GI50 (K-562 leukemia): 2810 nM; TGI (K-562 leukemia): 12 µM; GI50 (SF-268 CNS): 7.85 µM; TGI (SF-268 CNS): 21.1 µM; GI50 (RXF 393 renal): 1900 nM; TGI (RXF 393 renal): 4.22 µM; GI50 (UACC-257 melanoma): 1600 nM; TGI (UACC-257 melanoma): 3.08 µM; GI50 (CAKI-1 renal): 1560 nM; TGI (CAKI-1 renal): 2970 nM; GI50 (OVCAR-8 ovarian): 3.73 µM; TGI (OVCAR-8 ovarian): 13.6 µM; GI50 (M14 melanoma): 6.53 µM; TGI (M14 melanoma): 19.5 µM; GI50 (MOLT-4 leukemia): 2770 nM; TGI (MOLT-4 leukemia): 7.5 µM; GI50 (786-0 renal): 3.67 µM; TGI (786-0 renal): 13.5 µM; GI50 (ACHN renal): 1660 nM; TGI (ACHN renal): 3.06 µM; GI50 (OVCAR-5 ovarian): 17 µM; TGI (OVCAR-5 ovarian): 32 µM; GI50 (TK-10 renal): 13 µM; TGI (TK-10 renal): 26.2 µM; GI50 (BT-549 breast): 11.7 µM; TGI (BT-549 breast): 24 µM; GI50 (KM12 colon): 12.4 µM; TGI (KM12 colon): 25.4 µM; GI50 (EKVX NSCLC): 1420 nM; TGI (EKVX NSCLC): 2870 nM; GI50 (NCI-H460 lung): 15.8 µM; TGI (NCI-H460 lung): 33.6 µM; GI50 (U251 CNS): 11.6 µM; TGI (U251 CNS): 25.7 µM; GI50 (SK-MEL-28 melanoma): 14.2 µM; TGI (SK-MEL-28 melanoma): 27.9 µM; GI50 (SK-OV-3 ovarian): 17.9 µM; TGI (SK-OV-3 ovarian): 31.8 µM; GI50 (UACC-62 melanoma): 5.85 µM; TGI (UACC-62 melanoma): 18.8 µM; GI50 (SK-MEL-5 melanoma): 6.83 µM; TGI (SK-MEL-5 melanoma): 19.9 µM; GI50 (HS 578T breast): 6.38 µM; TGI (HS 578T breast): 50.5 µM; GI50 (MDA-MB-231 breast): 2460 nM; TGI (MDA-MB-231 breast): 11 µM; GI50 (DU-145 prostate): 10.7 µM; TGI (DU-145 prostate): 22.9 µM; GI50 (SNB-75 CNS): 10.7 µM; TGI (SNB-75 CNS): 23.2 µM; GI50 (A549 NSCLC): 17 µM; TGI (A549 NSCLC): 32.2 µM; GI50 (HL-60(TB) leukemia): 2020 nM; TGI (HL-60(TB) leukemia): 5.03 µM; GI50 (MCF7 breast): 1670 nM; TGI (MCF7 breast): 3.76 µM; GI50 (HCT-15 colon): 6.5 µM; TGI (HCT-15 colon): 23.4 µM; GI50 (SN12C renal): 11.3 µM; TGI (SN12C renal): 23.5 µM; GI50 (SR leukemia): 2280 nM; TGI (SR leukemia): 5.97 µM; GI50 (HCT-116 colon): 1650 nM; TGI (HCT-116 colon): 3.01 µM; GI50 (OVCAR-3 ovarian): 1560 nM; TGI (OVCAR-3 ovarian): 2920 nM; GI50 (NCI-H522 lung): 1590 nM; TGI (NCI-H522 lung): 3.02 µM
